Measured values from patent US8563717B2, “Adenine derivatives” (GlaxoSmithKline LLC, priority 2008, dated 2013).

tested on: Interferon-α; experiment: Induction of Interferon-α using cryopreserved human PBMCs; type: cell-based; conditions: PBMC, 24 h incubation, normalised to 1 uM resiquimod, read-out: mean pEC50 for induction of IFN-α (converted)
Procedure: Assay for the Induction of Interferon-α Using Cryopreserved Human Peripheral Blood Mononuclear Cells (PBMCs)
Compounds were dissolved in DMSO. Serial 2-fold dilutions with DMSO were prepared and 0.25 μl dispensed into 384-well clear Greiner polypropylene plates.
Blood samples of up to 200 ml were obtained from healthy human donors. Whole blood in 25 ml volumes was overlaid onto 15 ml Ficoll gradients in Leucosep tubes, and centrifuged at 1000 g for 20 min. Cells in the band at the plasma/histopaque interface were carefully removed and washed twice with PBS (centrifuged at 400 g for 5 min to harvest). The final pellet was resuspended in freezing medium (90% Heat-inactivated serum, 10% DMSO) to a cell concentration of 4×10^7 cells/ml. The resuspended cells were then cryopreserved (frozen) using a rate controlled freezer, and stored at −140° C. for up to 4 months.
Immediately prior to assay, vials of cryopreserved (frozen) PBMCs were thawed rapidly in a water bath at 37° C. A 1:10 dilution of the cells in trypan blue was prepared and counted. The PBMCs were then diluted in growth media [RPMI 1640 containing 10% fetal calf serum (invitrogen), Penicillin+[…] (Gibco cat. #25030-024, 1:50), L-Glutamine 2 mM, and 1000 units/ml recombinant human IFN-gamma (Preprotech catalogue #300-02)] to a density of 1×10^6 cells/ml, and 50 ul/well dispensed to 384-well clear Greiner polypropylene plates containing 0.25 μl DMSO or test compound in 0.25 μl DMSO. […] Plates were incubated for 24 h at 37° C. in 5% CO2.
A multi-isoform immunoassay was used to quantify IFN-α in PBMC supernatants. Rabbit polyclonal antibody against human IFN-α (catalogue number 31101, Stratech Scientific) was diluted 1:10000 in assay buffer (RPMI 1640 containing 10% fetal calf serum, Invitrogen) and 20 μl was added to each well of an MSD (Meso-Scale Discovery) single small-spot 384-well GAR (goat anti-rabbit antibody coated) plate. The plate was incubated for 1 hour at room temperature with vigorous shaking. Following three washes with PBS, 20 μl of cell supernatant were added to each well of the plate. The plate was then incubated for 1 hour at room temperature with vigorous shaking. A pair of monoclonal antibodies to IFN-α (catalogue numbers 21100 and 21112, Stratech Scientific) were labelled with sulfo-TAG (MSD), diluted 1:1000 in assay buffer and 20 μl added to each well of the plate. The plate was further incubated for 1 hour at room temperature with vigorous shaking. Following three washes with PBS, 30 μl of x2 T buffer (MSD) was added to each well and the plate was read on an MSD Sector 6000 plate reader.
Data were normalised to internal plate controls of 1 uM resiquimod (n=16) and DMSO (n=16). pEC50 values were derived by 4-parameter curve fit with IRLS in ActivityBase, from 11-point, two-fold serial dilution of test compounds.

Row | Structure (SMILES) | EC50 [nM]
1 | CCCCOc1nc(N)c2[nH]c(=O)n(CCC3CCN(CCC(C)C)CC3)c2n1 [Example 85, 6-Amino-2-(butyloxy)-9-{2-[1-(3-methylbutyl)-4-piperidinyl]ethyl}-7,9-dihydro-8H-purin-8-one] | < 1580
2 | CCCCOc1nc(N)c2[nH]c(=O)n(CCC3CCN(C4CCCC4)CC3)c2n1 [Example 86, 6-Amino-2-(butyloxy)-9-[2-(1-cyclopentyl-4-piperidinyl)ethyl]-7,9-dihydro-8H-purin-8-one] | < 1580
3 | CCCCOc1nc(N)c2[nH]c(=O)n(CCC3CCN(CC4CCCC4)CC3)c2n1 [Example 87, 6-Amino-2-(butyloxy)-9-{2-[1-(cyclopentylmethyl)-4-piperidinyl]ethyl}-7,9-dihydro-8H-purin-8-one] | < 1580
4 | CCCCOc1nc(N)c2[nH]c(=O)n(CCC3CCN(C4CCCCC4)CC3)c2n1 [Example 88, 6-Amino-2-(butyloxy)-9-[2-(1-cyclohexyl-4-piperidinyl)ethyl]-7,9-dihydro-8H-purin-8-one] | < 1580
5 | CCCCOc1nc(N)c2[nH]c(=O)n(CCC3CCN(CCC4CCCCC4)CC3)c2n1 [Example 89, 6-Amino-2-(butyloxy)-9-{2-[1-(2-cyclohexylethyl)-4-piperidinyl]ethyl}-7,9-dihydro-8H-purin-8-one] | < 1580
6 | CCC[C@H](C)Oc1nc(N)c2[nH]c(=O)n(CCC3CCNCC3)c2n1 [Example 90, 6-Amino-2-{[(1S)-1-methylbutyl]oxy}-9-[2-(4-piperidinyl)ethyl]-7,9-dihydro-8H-purin-8-one] | < 1580
7 | CCCCOc1nc(N)c2[nH]c(=O)n(CCCC3CCNCC3)c2n1 [Example 93, 6-Amino-2-(butyloxy)-9-[3-(4-piperidinyl)propyl]-7,9-dihydro-8H-purin-8-one] | < 1580
8 | CCCCOc1nc(N)c2[nH]c(=O)n(CCCC3CCN(CC(C)C)CC3)c2n1 [Example 97, 6-Amino-2-(butyloxy)-9-{3-[1-(2-methylpropyl)-4-piperidinyl]propyl}-7,9-dihydro-8H-purin-8-one] | < 1580
9 | CCCCOc1nc(N)c2[nH]c(=O)n(CCCC3CCN(C(CC)CC)CC3)c2n1 [Example 98, 6-Amino-2-(butyloxy)-9-{3-[1-(1-ethylpropyl)-4-piperidinyl]propyl}-7,9-dihydro-8H-burin-8-one] | < 1580
10 | CCCCOc1nc(N)c2[nH]c(=O)n(CCCC3CCN(CCC(C)C)CC3)c2n1 [Example 99, 6-Amino-2-(butyloxy)-9-{3-[1-(3-methylbutyl)-4-piperidinyl]propyl}-7,9-dihydro-8H-purin-8-one] | < 1580
11 | CCCCOc1nc(N)c2[nH]c(=O)n(CCCC3CCN(C4CCCC4)CC3)c2n1 [Example 100, 6-Amino-2-(butyloxy)-9-[3-(1-cyclopentyl-4-piperidinyl)propyl]-7,9-dihydro-8H-purin-8-one] | < 1580
12 | CCCCOc1nc(N)c2[nH]c(=O)n(CCCC3CCN(CC4CCCC4)CC3)c2n1 [Example 101, 6-Amino-2-(butyloxy)-9-{3-[1-(cyclopentylmethyl)-4-piperidinyl]propyl}-7,9-dihydro-8H-purin-8-one] | < 1580
13 | CCCCOc1nc(N)c2[nH]c(=O)n(CCCC3CCN(CCC4CCCCC4)CC3)c2n1 [Example 103, 6-Amino-2-(butyloxy)-9-{3-[1-(2-cyclohexylethyl)-4-piperidinyl]propyl}-7,9-dihydro-8H-purin-8-one] | < 1580
14 | CCC[C@H](C)Oc1nc(N)c2[nH]c(=O)n(CCCC3CCN(CC)CC3)c2n1 [Example 105, 6-Amino-9-[3-(1-ethyl-4-piperidinyl)propyl]-2-{[(1S)-1-methylbutyl]oxy}-7,9-dihydro-8H-purin-8-one] | < 1580
15 | CCCCOc1nc(N)c2[nH]c(=O)n(CCCCC3CCNCC3)c2n1 [Example 107, 6-Amino-2-(butyloxy)-9-[4-(4-piperidinyl)butyl]-7,9-dihydro-8H-purin-8-one] | < 1580
16 | CCCCOc1nc(N)c2[nH]c(=O)n(CCCCC3CCN(C(C)C)CC3)c2n1 [Example 109, 6-Amino-2-(butyloxy)-9-{4-[1-(1-methylethyl)-4-piperidinyl]butyl}-7,9-dihydro-8H-purin-8-one] | < 1580
17 | CCCCOc1nc(N)c2[nH]c(=O)n(CCCCC3CCN(CCCC)CC3)c2n1 [Example 110, 6-Amino-2-(butyloxy)-9-[4-(1-butyl-4-piperidinyl)butyl]-7,9-dihydro-8H-purin-8-one] | < 1580
18 | CCCCOc1nc(N)c2[nH]c(=O)n(CCCCC3CCN(CC(C)C)CC3)c2n1 [Example 111, 6-Amino-2-(butyloxy)-9-{4-[1-(2-methylpropyl)-4-piperidinyl]butyl}-7,9-dihydro-8H-purin-8-one] | < 1580
19 | CCCCOc1nc(N)c2[nH]c(=O)n(CCCCC3CCN(C(CC)CC)CC3)c2n1 [Example 112, 6-Amino-2-(butyloxy)-9-{4-[1-(1-ethylpropyl)-4-piperidinyl]butyl}-7,9-dihydro-8H-purin-8-one] | < 1580
20 | CCCCOc1nc(N)c2[nH]c(=O)n(CCCCC3CCN(CCC(C)C)CC3)c2n1 [Example 113, 6-Amino-2-(butyloxy)-9-{4-[1-(3-methylbutyl)-4-piperidinyl]butyl}-7,9-dihydro-8H-purin-8-one] | < 1580
21 | CCCCOc1nc(N)c2[nH]c(=O)n(CCCCC3CCN(C4CCCC4)CC3)c2n1 [Example 114, 6-Amino-2-(butyloxy)-9-[4-(1-cyclopentyl-4-piperidinyl)butyl]-7,9-dihydro-8H-purin-8-one] | < 1580
22 | CCCCOc1nc(N)c2[nH]c(=O)n(CCCCC3CCN(CC4CCCC4)CC3)c2n1 [Example 115, 6-Amino-2-(butyloxy)-9-{4-[1-(cyclopentylmethyl)-4-piperidinyl]butyl}-7,9-dihydro-8H-purin-8-one] | < 1580
23 | CCCCOc1nc(N)c2[nH]c(=O)n(CCCCC3CCN(C4CCCCC4)CC3)c2n1 [Example 116, 6-Amino-2-(butyloxy)-9-[4-(1-cyclohexyl-4-piperidinyl)butyl]-7,9-dihydro-8H-purin-8-one] | < 1580
24 | CCCCOc1nc(N)c2[nH]c(=O)n(CCCCC3CCN(CCC4CCCCC4)CC3)c2n1 [Example 117, 6-Amino-2-(butyloxy)-9-{4-[1-(2-cyclohexylethyl)-4-piperidinyl]butyl}-7,9-dihydro-8H-purin-8-one] | < 1580
25 | CCC[C@H](C)Oc1nc(N)c2[nH]c(=O)n(CCCCC3CCNCC3)c2n1 [Example 118, 6-Amino-2-{[(1S)-1-methylbutyl]oxy}-9-[4-(4-piperidinyl)butyl]-7,9-dihydro-8H-purin-8-one] | < 1580
26 | CCCCNc1nc(N)c2[nH]c(=O)n(CCCCC3CCNCC3)c2n1 [Example 120, 6-Amino-2-(butylamino)-9-[4-(4-piperidinyl)butyl]-7,9-dihydro-8H-purin-8-one] | < 1580
27 | CCCCNc1nc(N)c2[nH]c(=O)n(CCCCC3CCN(CC)CC3)c2n1 [Example 121, 6-Amino-2-(butylamino)-9-[4-(1-ethyl-4-piperidinyl)butyl]-7,9-dihydro-8H-purin-8-one] | < 1580
28 | CCCCOc1nc(N)c2[nH]c(=O)n(CCCCCC3CCN(CC)CC3)c2n1 [Example 123, 6-Amino-2-(butyloxy)-9-[5-(1-ethyl-4-piperidinyl)pentyl]-7,9-dihydro-8H-purin-8-one] | < 1580
29 | CCCCOc1nc(N)c2[nH]c(=O)n(CCCCCC3CCN(CCC)CC3)c2n1 [Example 124, 6-Amino-2-(butyloxy)-9-[5-(1-propyl-4-piperidinyl)pentyl]-7,9-dihydro-8H-purin-8-one] | < 1580
